The NIST ThermoML archive (doi:10.1016/j.fluid.2011.04.001)
± gives the expanded uncertainty stated by the source.

How the values were obtained:
[1] = refractive index (Na D-line) (dimensionless); conditions: 298.15 K; 101.33 kPa; Liquid; Standard Abbe refractometry
[2] = 298.15 K; 101.33 kPa; Liquid; Vibrating tube method
[3] = xn = mol fraction of the nth substance listed; conditions: 298.15 K, 101 kPa, Liquid, Vibrating tube method

## CCOS(=O)(=O)[O-].CCn1cc[n+](C)c1 [1-ethyl-3-methylimidazolium ethyl sulfate]
[1]
  refractive index: 1.50591 ± 0.0004
[2]
  mass density: 1237.23 ± 0.43 kg/m3

## CCOS(=O)(=O)[O-].CCn1cc[n+](C)c1 [1-ethyl-3-methylimidazolium ethyl sulfate] + CCCCCC
[3]; x2 = 0.015
  mass density: 1234.45 ± 1.5 kg/m3

## CCOS(=O)(=O)[O-].CCn1cc[n+](C)c1 [1-ethyl-3-methylimidazolium ethyl sulfate] + Cc1ccc(C)cc1
[3]; x2 = 0.123
  mass density: 1210.97 ± 1.5 kg/m3

## CCOS(=O)(=O)[O-].CCn1cc[n+](C)c1 [1-ethyl-3-methylimidazolium ethyl sulfate] + Cc1cccc(C)c1
[3]; x2 = 0.119
  mass density: 1212.69 ± 1.5 kg/m3

## CCOS(=O)(=O)[O-].CCn1cc[n+](C)c1 [1-ethyl-3-methylimidazolium ethyl sulfate] + Cc1ccccc1C
[3]; x2 = 0.142
  mass density: 1207.74 ± 1.5 kg/m3
